Data set [1] has as its target T1, NK2 receptor (Rattus norvegicus, UniProt P16610).
T1 sequence (P16610 1-390): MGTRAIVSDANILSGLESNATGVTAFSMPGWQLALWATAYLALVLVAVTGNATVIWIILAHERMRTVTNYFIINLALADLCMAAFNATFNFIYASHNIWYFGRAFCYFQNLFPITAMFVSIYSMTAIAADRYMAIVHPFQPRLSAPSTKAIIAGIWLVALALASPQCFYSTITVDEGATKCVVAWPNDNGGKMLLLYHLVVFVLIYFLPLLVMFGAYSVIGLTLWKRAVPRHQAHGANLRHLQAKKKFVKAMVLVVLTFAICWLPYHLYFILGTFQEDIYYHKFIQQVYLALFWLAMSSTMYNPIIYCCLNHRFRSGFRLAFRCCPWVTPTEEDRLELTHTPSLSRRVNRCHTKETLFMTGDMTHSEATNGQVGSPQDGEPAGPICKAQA
In words: 125I-neurokinin A binding to the NK2 receptor in rat duodenum membranes. Further details: from tissue. The conditions noted are these: read-out: Ki, inhibition of 125I-neurokinin A binding to the NK2 receptor.

Another data set has as its target T2, NK3 (Cavia porcellus, UniProt P30098).
T2 construct: tested in a guinea pig forebrain membrane preparation; from tissue; host or cells: guinea pig forebrain membrane preparation
T2 sequence (P30098 1-440): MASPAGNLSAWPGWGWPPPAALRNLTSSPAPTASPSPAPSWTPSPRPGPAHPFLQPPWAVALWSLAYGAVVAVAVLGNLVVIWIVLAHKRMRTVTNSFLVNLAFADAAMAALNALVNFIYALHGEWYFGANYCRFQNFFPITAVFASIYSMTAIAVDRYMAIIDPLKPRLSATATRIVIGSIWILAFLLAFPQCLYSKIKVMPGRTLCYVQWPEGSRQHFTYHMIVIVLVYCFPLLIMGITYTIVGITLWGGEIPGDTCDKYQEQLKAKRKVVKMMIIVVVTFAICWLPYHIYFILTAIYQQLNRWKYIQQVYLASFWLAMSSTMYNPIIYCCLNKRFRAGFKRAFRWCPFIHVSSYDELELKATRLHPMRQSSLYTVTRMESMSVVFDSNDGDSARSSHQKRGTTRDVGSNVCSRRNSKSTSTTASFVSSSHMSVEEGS
In words: NK3 selective ligand 3H-senktide binding, guinea pig forebrain membrane preparation. The conditions noted are these: read-out: IC50 against NK3 selective ligand 3H-senktide.

In data set [2] the target is T3, NK1 (Homo sapiens, UniProt P25103). Briefly: Substance P NK1 receptor binding, 125I-Bolton Hunter Substance P, human astrocytoma cells (U-373 MG). Further details: host or cells: U-373 MG human astrocytoma cells (intact monolayer). The conditions noted are these: for IC50: comparative test with ditryptophenaline, read-out: IC50, Substance P antagonist activity in human astrocytoma cells. On the procedure:
(§1) As stated above the compounds of Formula I are useful as Substance P antagonists and therefore as analgesic and/or antiinflammatory agents. Substance P antagonist NK1 receptor binding activity was determined using guinea pig submaxillary gland tissue and human astrocytoma cells.
Human astrocytoma cells (U--373 MG, ATCC No. HTB 17) were cultured in 75-mL flasks in an aqueous medium containing horse serum (heat inactivated, 10%), minimum essential amino acids (2%), minimum essential vitamin solution (2%), and an aqueous solution of penicillin (10,000 units/mL) and streptomycin (10,000 μg/mL) (Penn-Strep, 2%), which was sterilized by filtration through a disposable filter (Nalgene, VWR Cat. No. 28199-585). The medium was replaced twice weekly. Cells were passaged (1:4 split) by removing the medium and adding aqueous trypsin (0.25%, 8 mL/flask). The flasks were swirled for 30 seconds, the aqueous trypsin was removed, and the cells were incubated for 5 minutes at room temperature, then washed twice with fresh medium (7 mL each time). Poly-D-lysine solution (50 μg/mL in aqueous phosphate saline buffer, 0.25 mL) was added to each well of a sterile 96-well […] plate (Corning), which was then incubated at room temperature for 40 minutes. The poly-D-lysine solution was removed, each well was washed twice with aqueous phosphate saline buffer (0.25 mL), cells were added (0.2 mL/well), and the plate was incubated at 37° C. for two days in an oxygen-carbon dioxide (95:5) atmosphere to provide a monolayer of 1.4-1.9×10^4 cells per well.
To test for receptor binding the aqueous phosphate saline buffer was removed from each well, the cell monolayer was washed three times with assay buffer (aqueous 2-[4-(2-hydroxyethyl)-1-piperazinyl]ethanesulfonic acid [HEPES], 25 mM; potassium chloride, 5.8 mM; monopotassium phosphate, 2.2 mM; sodium chloride, 115 mM; magnesium sulfate, 0.6 mM; calcium chloride, 1.8 mM; bovine serum albumin, 1%; glucose, 5 mM; thiorphan, 1 μM; and bacitracin, 40 μg/mL; pH adjusted to 7.40 with dilute hydrochloric acid; 0.25 mL each time). To each well was then added assay buffer alone (0.1 mL) or a mixture (0.1 mL) with assay buffer as diluent containing ^125 I-Bolton Hunter Substance P (Amersham, Inc., Arlington Heights, Ill.; 0.1 nanomole) and test compound in amount to give the desired concentration thereof or, to determine nonspecific binding, unlabelled Substance P (0.1 micromole) and the plate was incubated at 25° C. for 90 minutes. […] The radioactivity of part (100 μL) of the detachment mixture was measured in a gamma ray counter (Packard Cobra). Kd and IC50 values were determined and a Ki value was calculated for each test compound as described above.

Data set [3] concerns the target T4, NK1 (Cavia porcellus, UniProt P30547). In words: NK1 functional assay: Substance P-induced contractility in the guinea pig ileum. Type of data set: cell-based. The arrangement: Substance P-induced contractility in the guinea pig ileum; from tissue; host or cells: guinea pig ileum (organ preparation).
For data set [4], the target named is T1, NK2 receptor. Briefly: Eledoisin-induced contractility in rat vas deferens model. Further details: from tissue; host or cells: rat vas deferens (organ preparation). The conditions noted are these: functional antagonism at the NK2 receptor, read-out: IC50, inhibition of eledoisin-induced contractility. Type of data set: cell-based.
For data set [5], the target named is T3, NK1. In words: NK1 functional assay: Substance P-induced 45Ca2+ efflux from human astrocytoma U373MG cells. Type of data set: cell-based. Further details: Human astrocytoma cells (U--373 MG, ATCC No. HTB 17) were cultured in 75-mL flasks; host or cells: U-373 MG human astrocytoma cells (intact monolayer). The following applies: read-out: IC50, inhibition of Substance P-induced 45Ca2+ efflux.

In data set [6] the target is T5, NK2 receptor (Homo sapiens, UniProt P21452).
T5 construct: NK2 receptor in both rat duodenum and human urinary bladder membranes; from tissue; host or cells: human urinary bladder membranes
T5 sequence (P21452 1-398): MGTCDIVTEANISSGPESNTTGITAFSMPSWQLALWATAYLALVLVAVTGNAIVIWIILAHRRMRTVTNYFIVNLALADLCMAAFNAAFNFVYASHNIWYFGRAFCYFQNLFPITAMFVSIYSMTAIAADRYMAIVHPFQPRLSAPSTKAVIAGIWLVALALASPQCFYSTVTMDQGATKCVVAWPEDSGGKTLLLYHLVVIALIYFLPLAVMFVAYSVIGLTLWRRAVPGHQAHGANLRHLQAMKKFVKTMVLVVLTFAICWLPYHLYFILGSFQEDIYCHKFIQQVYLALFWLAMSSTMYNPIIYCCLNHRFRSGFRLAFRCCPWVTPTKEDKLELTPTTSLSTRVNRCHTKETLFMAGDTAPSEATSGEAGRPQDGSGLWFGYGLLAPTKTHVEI
In words: 125I-neurokinin A binding to the NK2 receptor in human urinary bladder membranes. The following applies: read-out: Ki, inhibition of 125I-neurokinin A binding to the NK2 receptor.

For data set [7], the target named is T4, NK1. In words: Substance P NK1 receptor binding, tritiated Substance P, guinea pig submaxillary gland tissue. Further details: the resulting submaxillary gland tissue preparation (1.0 to 1.5 mL) was stored at -70° C; tissue Pel Freeze Biologicals; host or cells: guinea pig submaxillary gland homogenate. The conditions noted are these: tritiated Substance P 0.75 nM; Ki calculated from IC50 by Cheng-Prusoff; read-out: Ki Guinea Pig Submaxillary Gland Tissue (Substance P antagonist potency). On the procedure: as §1
Submaxillary glands from both sexes of Hartley guinea pigs were obtained from Pel Freeze Biologicals, Rogers, Arkansas by overnight express in a plastic bag kept cold in wet ice. […] Using serum bovine albumin as the standard the protein yield was determined by the Bradford method (Bio-Rad, Richmond, Calif.) to be 7-8 mg/mL or about 250 mg from 50 submaxillary glands.
To test for receptor binding a sample of the submaxillary gland tissue preparation was thawed on ice and rehomogenized with a glass homogenizer (Dounce). […] The residue on the filter was washed three times with tromethamine buffer (3 mL each time) and its radioactivity was measured in a liquid scintillation counter (Beckman LS5000) (x=number of counts per minute with test compound, y=number of counts per minute without test compound). […] The dissociation constant (Kd) for receptor binding was determined by varying the concentration of tritiated Substance P. The following calculations were made: […]

The conditions of data set [8]: quoted from Springer et al., Tetrahedron Letters 1977; cited from earlier work.

T3 sequence (P25103 whole entry): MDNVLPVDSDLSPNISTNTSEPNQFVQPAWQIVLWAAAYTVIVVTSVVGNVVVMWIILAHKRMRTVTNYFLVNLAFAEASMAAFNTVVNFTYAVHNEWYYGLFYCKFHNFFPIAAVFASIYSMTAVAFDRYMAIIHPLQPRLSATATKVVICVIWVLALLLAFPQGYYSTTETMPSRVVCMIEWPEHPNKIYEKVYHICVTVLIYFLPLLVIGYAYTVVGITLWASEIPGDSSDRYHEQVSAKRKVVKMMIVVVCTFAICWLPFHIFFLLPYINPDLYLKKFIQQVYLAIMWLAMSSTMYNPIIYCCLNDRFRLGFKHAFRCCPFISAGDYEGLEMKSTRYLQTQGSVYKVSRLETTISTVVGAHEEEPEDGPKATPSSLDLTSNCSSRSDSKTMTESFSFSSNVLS
T4 sequence (P30547 whole entry): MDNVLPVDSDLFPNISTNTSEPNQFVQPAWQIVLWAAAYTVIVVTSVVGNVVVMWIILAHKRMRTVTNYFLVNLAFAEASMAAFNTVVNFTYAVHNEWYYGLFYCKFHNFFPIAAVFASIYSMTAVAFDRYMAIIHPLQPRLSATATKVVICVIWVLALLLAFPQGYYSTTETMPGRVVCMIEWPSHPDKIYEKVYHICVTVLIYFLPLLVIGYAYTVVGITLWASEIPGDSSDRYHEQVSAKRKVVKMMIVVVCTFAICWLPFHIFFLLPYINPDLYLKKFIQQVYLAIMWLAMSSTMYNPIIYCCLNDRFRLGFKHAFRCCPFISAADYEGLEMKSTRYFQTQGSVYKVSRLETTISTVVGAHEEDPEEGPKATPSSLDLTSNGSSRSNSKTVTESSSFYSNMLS

For the molecule `O=C1N[C@@H](Cc2ccccc2)C(=O)N2[C@H]3Nc4ccccc4C3([C@]34C[C@H]5C(=O)N[C@@H](Cc6ccccc6)C(=O)N5[C@H]3Nc3ccccc34)C[C@@H]12` (stereo partly drawn) [Compound I-1], the inhibitory constant (Ki) – broadly, a dissociation constant, usually derived from enzyme kinetics or from competition with a known ligand – was 0.26 µM at NK2 receptor [1]; 0.24 µM on NK1 [2] (U-373 MG cells, 125I-Bolton Hunter Substance P, Ki calculated from IC50, read-out: Ki Human Astrocytoma Cells (Substance P antagonist potency)); 0.72 µM on NK2 receptor [6]; 0.95 to 2.4 µM at NK1 [7]. In addition, the concentration for half-maximal inhibition (IC50) – broadly, the concentration needed to halve the response being measured – at NK3 is 15.2 µM; on NK1 [2], 0.3 µM; on NK2 receptor [4] it was 3.4 ± 1.3 µM; at NK1 [5] it was 0.6 ± 0.3 µM. The “Potency relative to ditryptophenaline” value at NK1 [2] (ratio of IC50 values in human astrocytoma cells) was “fortyfold”. For the same molecule, the “pA2, competitive inhibition of Substance P-induced contractility” value on NK1 [3] is 6.6±0.31.
Turning to `CN1C(=O)[C@@H]2C[C@@]3([C@@]45C[C@H]6C(=O)N(C)[C@@H](Cc7ccccc7)C(=O)N6[C@@H]4Nc4ccccc45)c4ccccc4N[C@H]3N2C(=O)[C@@H]1Cc1ccccc1` [ditryptophenaline, reference compound], the IC50 at NK1 [2] came to 12 µM. Also, the LD50 (as a rule, the dose expected to kill half of the subjects tested) in data set [8] is on record as more than 200 mg/kg.

The record behind these values is patent US5338845A, “Aspergillus species, cyclic dimeric dipeptide derivative substance P antagonist biosynthetic products thereof, and process for preparation thereof” (Sterling Winthrop Inc., priority 1992, dated 1994).
